Molecules are shown by their SMILES. pIC50: −log10 of the molar value. “And” between values parts separate entries of the source, which are not always exact repeats. Equal entries are not always repeated. Where two headings read alike, the source gives them in different places.

The values that follow come from patent publication US11439623B2, “Method of modulating ribonucleotide reductase” (CASE WESTERN RESERVE UNIVERSITY, priority 2017, dated 2022).

Data set [1] has as its system human pancreas ductal adenocarcinoma Panc cells (Panc1). Nature of the data set: Cancer cell line growth inhibition assay (DNA content). Format: cell-based. Conditions: for Cellular IC50s Panc 1: Table 1, triazole derivatives, one cell printed for both cell lines; for activity in cell growth inhibition: Panc1, statement in text. As to the method: (§1) The growth inhibition assay was performed in the Preclinical Drug Testing Laboratory of the Case Comprehensive Cancer Center using a standardized protocol. Cell lines (human colon cancer HCT116 and human pancreas ductal adenocarcinoma Panc cells) were maintained in standard growth media; RPMI1640+10% FBS+2 mM glutamine+100 U/ml penicillin, 100 ug/ml streptomycin and shown to be negative for mycoplasma contamination using the MycoAlert™ Mycoplasma Detection kit (Lonza, Basel, Switzerland). Cell identity was verified by Short Tandem Repeat (STR) testing performed using the Promega StemElite kit, in the Genetic Resources Core Facility (GRCF) at Johns Hopkins University.
(§2) For growth inhibition assays, cells were harvested by trypsinization and seeded into 96-well tissue culture plates at 2500 cells/mL. The following day an equal volume of 2×-drug containing medium was added to each well. The cells were cultured for 3 additional days at 37° C. in a 5% CO2 humidified incubator. Cell growth was assessed by measuring DNA content per well using the method of Labarca and Paigen. Dye fluorescence was measured in a Perkin-Elmer 1420 Victor 3 Multilabel plate reader using 355 nm excitation and 460 nm emission.

The test system of data set [2] is human colon cancer HCT116. The data set is described as above. The data set is classed as cell-based. Conditions: for Cellular IC50s HCT-116: Table 1, triazole derivatives, one cell printed for both cell lines; for pIC50: HCT-116; for activity in cell growth inhibition: HCT116, statement in text. As to the method: as §1, §2
The subject of data set [3] is normal mobilized peripheral blood progenitor cells. Conditions: previously characterized; cited from earlier work.
A further data set has as its target T1, hRRM1 hexamers (Homo sapiens, UniProt P23921).
T1 sequence (P23921 1-792): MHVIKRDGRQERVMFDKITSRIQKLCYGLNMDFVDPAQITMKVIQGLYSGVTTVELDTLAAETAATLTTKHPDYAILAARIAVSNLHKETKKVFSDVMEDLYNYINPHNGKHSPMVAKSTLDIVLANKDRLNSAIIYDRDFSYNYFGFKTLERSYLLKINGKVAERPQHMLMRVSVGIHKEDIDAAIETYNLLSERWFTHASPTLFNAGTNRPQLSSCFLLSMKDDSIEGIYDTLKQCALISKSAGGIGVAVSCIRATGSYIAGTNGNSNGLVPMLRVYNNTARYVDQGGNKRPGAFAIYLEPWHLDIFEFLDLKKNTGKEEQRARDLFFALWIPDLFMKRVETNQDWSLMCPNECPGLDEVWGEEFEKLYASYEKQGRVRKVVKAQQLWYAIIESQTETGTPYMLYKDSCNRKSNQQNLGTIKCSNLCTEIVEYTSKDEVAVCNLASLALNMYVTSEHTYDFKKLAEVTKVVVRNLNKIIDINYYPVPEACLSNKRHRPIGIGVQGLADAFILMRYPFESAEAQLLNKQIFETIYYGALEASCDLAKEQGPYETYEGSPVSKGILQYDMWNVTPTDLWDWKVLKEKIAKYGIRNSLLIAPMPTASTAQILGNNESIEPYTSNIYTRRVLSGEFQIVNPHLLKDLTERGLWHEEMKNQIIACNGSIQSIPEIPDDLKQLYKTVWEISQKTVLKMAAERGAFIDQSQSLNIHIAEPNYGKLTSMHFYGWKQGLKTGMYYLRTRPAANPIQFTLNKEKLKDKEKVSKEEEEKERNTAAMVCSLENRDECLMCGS
Conditions: background statement; cited from earlier work.

[4] abbreviates: Homo sapiens, PANC-1, Panc1, Calcusyn fit, runs Oct. 21 and Oct. 24, 2016, read-out: Dm.
[5] abbreviates: Homo sapiens, Calcusyn fit, runs Oct. 21 and Oct. 24, 2016, read-out: Dm.
The mark [6] stands for this setting: Homo sapiens, PANC-1, Table 2, oxadiazoles, read-out: Cellular IC50s Panc 1.
[7] abbreviates: Homo sapiens, Table 2, oxadiazoles, read-out: Cellular IC50s HCT-116.

With `COc1ccc2cc(-c3cn(Cc4ccccc4)nn3)ccc2c1`, in data set [1], the “Cellular IC50s Panc 1” value was “No cytotoxicity”. Moreover, in data set [2], the “Cellular IC50s HCT-116” value is “No cytotoxicity”.

Turning to `COc1ccc2cc(-c3cn(CCc4ccc(O)cc4)nn3)ccc2c1`, the “Cellular IC50s Panc 1” value in data set [1] is reported as “No cytotoxicity”. The “Cellular IC50s HCT-116” value in data set [2] was “No cytotoxicity”.

On to `O=C(O)CC(c1ccccc1)n1cc(-c2c(O)ccc3ccccc23)nn1` (stereo not drawn), for which the “Cellular IC50s Panc 1” value in data set [1] is listed as “No cytotoxicity”. In addition, in data set [2], the “Cellular IC50s HCT-116” value was “No cytotoxicity”.

On to `C[C@@H]([C@H](O)c1ccccc1)n1cc(-c2c(O)ccc3ccccc23)nn1`, for which the “Cellular IC50s Panc 1” value in data set [1] is “No cytotoxicity”. In data set [2], the “Cellular IC50s HCT-116” value was “No cytotoxicity”.

Turning to `Cc1c(-n2cc(-c3c(O)ccc4ccccc34)nn2)c(=O)n(-c2ccccc2)n1C`, the “Cellular IC50s Panc 1” value in data set [1] was “No cytotoxicity”. Besides, in data set [2], the “Cellular IC50s HCT-116” value is listed as “No cytotoxicity”.

For `O=C(NN=Cc1c(O)ccc2ccccc12)c1ccccc1O` [NSAAH, Naphthyl Salicyl Acyl Hydrazone, reference compound], the pIC50 in data set [1] (Panc1, Calcusyn fit, runs Oct. 21 and Oct. 24, 2016, listed as NSAAH (new), read-out: Dm) is 6.07; in data set [1] (Panc1, Calcusyn fit, runs Oct. 21 and Oct. 24, 2016, listed as NSAAH (old), read-out: Dm), 6.26 and 6.32; in data set [2] (Calcusyn fit, runs Oct. 21 and Oct. 24, 2016, listed as NSAAH (new), read-out: Dm) it was 6.75; in data set [2] (Calcusyn fit, runs Oct. 21 and Oct. 24, 2016, listed as NSAAH (old), read-out: Dm) it was 6.63 and 6.78. Further, in data set [3], the cytotoxicity result is “little measurable cytotoxicity”.

With `NC1(c2cn([C@H](c3ccccc3)[C@H](O)c3ccccc3)nn2)CCCCC1` [NSAAT E], the pIC50 in data set [1] (setting [4]) was less than 5.00; in data set [2] (setting [5]) it was 4.18.

For the compound `O=C(c1c(O)ccc2ccccc12)n1cc(-c2cccnc2)nn1` [NSAAT F], the pIC50 in data set [1] (setting [4]) and in data set [2] (setting [5]) was less than 5.00 each time.

In the case of `Oc1ccccc1-c1nnc(-c2c(O)ccc3ccccc23)o1` [Oxa A], the pIC50 is 4.27 in data set [1] (setting [4]), 5.15 in data set [1] (setting [6]), 5.49 in data set [2] (setting [7]) and 5.16 in data set [2] (setting [5]). The “activity in cell growth inhibition” value in data set [1] and in data set [2] was “low micromolar range” each time.

Turning to `Oc1ccc2ccccc2c1-c1nnc(-c2cccnc2)o1` [Oxa F], the pIC50 in data set [1] (setting [4]) was 5.72; in data set [1] (setting [6]) it was 5.60; in data set [2] (setting [7]) it was 5.92; in data set [2] (setting [5]) it was 5.85. For the same compound, the “activity in cell growth inhibition” value in data set [1] and in data set [2] was “low micromolar range” in each case.

For the compound `Nc1nc(Cl)nc2c1ncn2[C@@H]1O[C@H](CO)[C@@H](O)[C@@H]1F` [clofarabine, 2′-fluro-2′-deoxyarabinofuranosyl-2-chloroadenine], the binding affinity entry on hRRM1 hexamers is “nanomolar affinity”.

Consider `NC1(c2cn([C@H](c3ccccc3)[C@H](O)c3ccccc3)nn2)CCCCC1` [drawing 59], for which the “Cellular IC50s Panc 1” value in data set [1] is “No cytotoxicity”. Besides, the “Cellular IC50s HCT-116” value in data set [2] is given as “No cytotoxicity”.

Turning to `O=C(c1c(O)ccc2ccccc12)n1cc(-c2cccnc2)nn1` [drawing 60], the “Cellular IC50s Panc 1” value in data set [1] is “No cytotoxicity”. The “Cellular IC50s HCT-116” value in data set [2] is given as “No cytotoxicity”.
